Results as given in article PMC7466261, “In Silico and In Vitro Analysis of Multifunctionality of Animal Food-Derived Peptides” (Foods, 2020).
Read-outs that look alike come from different tables or passages of the source. Where a SMILES comes first, the peptide text is derived from it. Where no end group is shown, it is not given here.

Tests used:
[1] = Oxygen radical absorbance capacity (ORAC)-FL assay; parameters: key to Antioxidant Activity ORAC, symbol: **: Antioxidant activity not detected at the highest peptide concentration analyzed (0.20 µmol); conditions: for Antioxidant Activity ORAC: mean ± SD
Protocol: An oxygen radical absorbance capacity (ORAC)-FL assay was used based on the protocol previously optimized. The reaction was performed at 37 °C in 75 mM phosphate buffer (pH 7.4). The final assay mixture volume was 200 µL, containing 70 nM FL, 12 mM AAPH, and antioxidant [(Trolox, 1–8 µM) or sample (at different concentrations)]. Fluorescence was measured during 137 min in a FLUOstar OPTIMA plate reader (BMG Labtech) with 485 nm excitation and 520 nm emission filters. The equipment was controlled by the FLUOstar Control ver. 1.32 R2 software for fluorescence measurement. Samples were analyzed in triplicate. The final ORAC-FL value was expressed as μmol Trolox equivalents (TE) per μmol peptide.

[2] = MBPDB; cited from earlier work
[3] = target: T1, angiotensin-converting enzyme (ACE) (Oryctolagus cuniculus, UniProt P12822); conditions: read-out: ACE inhibitory IC50, cited from earlier work
T1 sequence (P12822 34-1310): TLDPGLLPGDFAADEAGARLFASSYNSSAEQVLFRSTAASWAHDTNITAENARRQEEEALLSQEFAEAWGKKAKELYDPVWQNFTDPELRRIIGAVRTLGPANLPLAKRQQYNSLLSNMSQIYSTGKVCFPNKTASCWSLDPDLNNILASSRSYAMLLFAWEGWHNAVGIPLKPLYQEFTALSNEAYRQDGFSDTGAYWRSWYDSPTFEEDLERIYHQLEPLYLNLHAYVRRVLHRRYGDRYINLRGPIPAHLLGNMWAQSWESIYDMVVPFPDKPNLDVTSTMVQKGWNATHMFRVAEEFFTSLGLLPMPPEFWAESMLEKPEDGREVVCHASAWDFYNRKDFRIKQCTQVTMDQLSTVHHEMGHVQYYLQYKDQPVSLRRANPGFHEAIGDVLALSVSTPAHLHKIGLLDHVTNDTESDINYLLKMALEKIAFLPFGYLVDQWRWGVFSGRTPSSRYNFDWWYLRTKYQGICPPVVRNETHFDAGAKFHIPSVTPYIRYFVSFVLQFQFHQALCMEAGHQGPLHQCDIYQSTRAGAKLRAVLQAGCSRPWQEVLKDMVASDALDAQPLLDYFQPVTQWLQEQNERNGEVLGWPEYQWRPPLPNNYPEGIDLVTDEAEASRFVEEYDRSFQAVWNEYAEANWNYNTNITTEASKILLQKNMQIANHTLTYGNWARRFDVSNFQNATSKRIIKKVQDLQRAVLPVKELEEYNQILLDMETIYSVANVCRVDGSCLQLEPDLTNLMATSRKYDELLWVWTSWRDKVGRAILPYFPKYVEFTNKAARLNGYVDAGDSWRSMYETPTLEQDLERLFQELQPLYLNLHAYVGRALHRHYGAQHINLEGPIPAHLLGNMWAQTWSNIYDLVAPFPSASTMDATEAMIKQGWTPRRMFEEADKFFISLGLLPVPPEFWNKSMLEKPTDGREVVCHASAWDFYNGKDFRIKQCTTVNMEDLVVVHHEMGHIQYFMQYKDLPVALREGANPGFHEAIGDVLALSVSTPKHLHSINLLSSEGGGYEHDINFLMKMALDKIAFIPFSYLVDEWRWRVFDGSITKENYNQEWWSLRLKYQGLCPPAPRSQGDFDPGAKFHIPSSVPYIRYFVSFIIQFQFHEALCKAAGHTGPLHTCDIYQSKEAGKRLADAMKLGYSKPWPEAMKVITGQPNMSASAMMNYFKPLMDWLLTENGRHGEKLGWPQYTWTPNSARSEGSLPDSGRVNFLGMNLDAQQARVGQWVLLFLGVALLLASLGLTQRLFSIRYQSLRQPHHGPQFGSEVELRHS

ABTS assay (TEAC) = conditions: mean ± SD
Protocol: Antioxidant activity was measured using a previously optimized method with some modifications. A mixture of 7 mM ABTS stock solution and 2.45 mM potassium persulfate was kept in the dark at room temperature for 12-16 h to form the ABTS radical cation (ABTS^•+). The ABTS^•+ solution was diluted in 5 mM of phosphate buffer solution (PBS) (pH 7.4) to an absorbance of 0.70 ± 0.02 at 734 nm at 30 °C. Two mL of diluted ABTS^•+ solution were mixed with 20 μL of sample or Trolox (0–0.015 μmol), and the absorbance was recorded at 734 nm after 10 min incubation at 30 °C. The Trolox equivalent antioxidant capacity (TEAC) value was expressed as μmol TE per μmol peptide. Each sample was analyzed in triplicate.

[4] = target: T1, angiotensin-converting enzyme (ACE); assay: ACE-inhibitory activity, fluorescence assay with Abz-Gly-Phe(NO2)-Pro; format: biochemical
Protocol: ACE (1 U/mL) was diluted (0.04 U/mL) in 150 mM Tris buffer containing 0.1 μM ZnCl2 (pH 8.3). Forty microliters of sample (or MilliQ water for blank and control) were added to a black multi-well plate (Porvair, Leatherhead, UK). Then, 40 μL of ACE were added, and the reaction started after the addition of 160 μL of the substrate. The plate was incubated at 37 °C for 30 min, and the fluorescence was measured in a FLUOstar OPTIMA plate reader (BMG Labtechnologies GmbH, Offenburg, Germany) with 320 nm excitation and 420 nm emission filters.

RAW264.7 cells = assay: Cell viability (MTT), direct effects, RAW264.7; format: cell-based, mouse; conditions: RAW264.7, 1–100 µM, 24 h
Protocol: (§1) Cell viability was determined using the MTT assay. […] Samples were analyzed in triplicate.

Caco-2 cells [5] = assay: Cell viability (MTT), direct effects, Caco-2; format: cell-based, human; conditions: Caco-2, 1–100 µM, 24 h
Protocol: as §1

Caco-2 cells [6] = assay: Intracellular ROS (DCFH), t-BOOH-stressed Caco-2; format: cell-based, human; conditions: stressed Caco-2 (1 mM t-BOOH)
Protocol: The intracellular ROS levels were detected using the ROS-sensitive fluorescent dye, DCFH, as previously described. Caco-2 cells were plated in 48-well plates (density of 4.75 × 10^4 cells/well) and RAW264.7 cells in 24-well plates (density of 2.0 × 10^5 cells/well) and incubated for 7 days and 14 h, respectively. After this time, cells were treated with peptides as previously described for 24 h. Then, DCFH was dissolved in HBSS and added to cells at a final concentration of 5 µM solution. Cells were incubated for 30 min at 37 °C. The probe was removed, and cells were incubated with PBS (direct effects) or t-BOOH (protective effects) for 60 min, measuring the fluorescence after 60 min in a FLUOstar OPTIMA plate reader (BMG Labtech) with 485 nm excitation and 520 nm emission filters. The results were expressed as percentage of the control, which was considered as 100%. The assay was run in triplicate.

[7] = highest peptide concentration analyzed 1000 µM, read-out: ACE Inhibitory Activity (IC50-µM), symbol
[8] = mean ± SD, read-out: ACE Inhibitory Activity (IC50-µM)

CC(C)C[C@H](NC(=O)[C@H](Cc1ccc(O)cc1)NC(=O)[C@@H](N)CCCNC(=N)N)C(=O)NCC(=O)O [RYLG] (H-RYLG-OH; N-terminus and C-terminus assumed)
Antioxidant Activity ORAC [1]: 1.70 ± 0.11 µmol TE/µmol peptide
ORAC [2]: ORAC = 1.67 µmol TE/µmol peptide **
IC50 ([3]; database value): 225 µM
Antioxidant Activity TEAC (ABTS assay (TEAC)): 2.91 ± 0.21 µmol TE/µmol peptide
IC50 [4, 7]: > 1000 µM

CC(C)C[C@H](NC(=O)[C@@H](N)Cc1ccc(O)cc1)C(=O)NCC(=O)O [YLG] (H-Tyr-Leu-Gly-OH; N-terminus and C-terminus assumed)
Antioxidant Activity ORAC [1]: 0.93 ± 0.08 µmol TE/µmol peptide
ORAC [2]: ORAC = 1.38 µmol TE/µmol peptide **
Antioxidant Activity TEAC (ABTS assay (TEAC)): 1.40 ± 0.04 µmol TE/µmol peptide
IC50 [4, 7]: > 1000 µM

HLPLP [reference compound]
IC50 ([3]; literature value): 41 µM

N[C@@H](Cc1ccc(O)cc1)C(=O)N1CCC[C@H]1C(=O)N[C@@H](Cc1c[nH]c2ccccc12)C(=O)O [YPW] (H-Tyr-Pro-Trp-OH; N-terminus and C-terminus assumed)
IC50 [4, 7]: > 1000 µM

CC(C)C[C@H](N)C(=O)NCC(=O)N[C@@H](Cc1ccc(O)cc1)C(=O)O [LGY] (H-Leu-Gly-Tyr-OH; N-terminus and C-terminus assumed)
Antioxidant Activity ORAC [1]: 2.00 ± 0.09 µmol TE/µmol peptide
ORAC [2]: ORAC = 2.31 µmol TE/µmol peptide **
IC50 ([3]; database value): 21.5 µM
Antioxidant Activity TEAC (ABTS assay (TEAC)): 1.54 ± 0.01 µmol TE/µmol peptide
IC50 [4, 8]: 26.1 ± 0.83 µM

IPP [reference compound]
IC50 ([3]; literature value): 5 µM

YPVEPF [YPVEPF]
IC50 [4, 7]: > 1000 µM

CC(C)C[C@H](NC(=O)[C@H](Cc1ccc(O)cc1)NC(=O)[C@@H](N)CCCNC(=N)N)C(=O)O [RYL] (H-Arg-Tyr-Leu-OH; N-terminus and C-terminus assumed)
Antioxidant Activity ORAC [1]: 1.72 ± 0.14 µmol TE/µmol peptide
ORAC [2]: ORAC = 1.75 µmol TE/µmol peptide **
IC50 ([3]; BIOPEP-UWM): 3.31 µM
IC50 ([3]; database value): 107 µM
Antioxidant Activity TEAC (ABTS assay (TEAC)): 1.90 ± 0.03 µmol TE/µmol peptide
IC50 [4, 7]: > 1000 µM

RYLGY [RYLGY]
IC50 [4, 8]: 3.08 ± 0.11 µM

CC(C)C[C@H](NC(=O)[C@@H](N)Cc1ccc(O)cc1)C(=O)NCC(=O)N[C@@H](Cc1ccc(O)cc1)C(=O)O [YLGY] (H-YLGY-OH; N-terminus and C-terminus assumed)
Antioxidant Activity ORAC [1]: 2.96 ± 0.20 µmol TE/µmol peptide
ORAC [2]: ORAC = 1.46 µmol TE/µmol peptide **
IC50 ([3]; database value): 41.9 µM
Antioxidant Activity TEAC (ABTS assay (TEAC)): 2.14 ± 0.11 µmol TE/µmol peptide
IC50 [4, 8]: 9.87 ± 0.31 µM

RYLGYLE [RYLGYLE]
Cell viability, direct effect (RAW264.7 cells): did not evoke changes in cell viability
Cell viability, direct effect (Caco-2 cells [5]): did not evoke changes in cell viability
IC50 [4, 7]: > 1000 µM

FYPEL [FYPEL]
IC50 ([3]; database value): 80.6 µM
IC50 [4, 8]: 62 ± 6.27 µM

YPFPGPIP
IC50 [4, 8]: 224 ± 43.9 µM

YPFPGPI [YPFPGPI]
IC50 ([3]; MBPDB): 500 µM
IC50 [4, 8]: 686 ± 103 µM

AYFYPE [AYFYPE]
IC50 ([3]; BIOPEP-UWM and MBPDB): 106 µM
IC50 ([3]; database value): 261 µM
IC50 [4, 8]: 774 ± 38.2 µM

CC(C)C[C@H](NC(=O)[C@@H](N)CC(C)C)C(=O)N[C@@H](Cc1ccccc1)C(=O)O [LLF] (H-Leu-Leu-Phe-OH; N-terminus and C-terminus assumed)
Antioxidant Activity ORAC, symbol ([1]; highest peptide concentration analyzed 0.20 µmol): **
IC50 ([3]; BIOPEP-UWM): 79.8 µM
IC50 [4, 8]: 94.8 ± 2.97 µM

YPFVEP [YPFVEP]
IC50 [4, 8]: 7.48 ± 0.03 µM

YGFLP [YGFLP]
IC50 ([3]; literature value): 260 µM
IC50 [4, 8]: 272.39 ± 0.25 µM

YLGYLE [YLGYLE]
Cell viability, direct effect (RAW264.7 cells): did not evoke changes in cell viability
Cell viability, direct effect (Caco-2 cells [5]): did not evoke changes in cell viability
ROS levels (% control) (Caco-2 cells [6]; 1 µM peptide): 175.06 ± 11.13%
ROS levels (% control) (Caco-2 cells [6]; 10 µM peptide): 174.44 ± 11.60%
IC50 [4, 8]: 85.8 ± 4.66 µM

YPFVE [YPFVE]
IC50 [4, 7]: > 1000 µM

VPP [reference compound]
IC50 ([3]; literature value): 9 µM

YFYPEL [YFYPEL]
Cell viability, direct effect (RAW264.7 cells): did not evoke changes in cell viability
Cell viability, direct effect (Caco-2 cells [5]): did not evoke changes in cell viability
ROS levels (% control) (Caco-2 cells [6]; 1 µM peptide): 168.88 ± 17.80%
IC50 [4, 8]: 8.82 ± 0.58 µM

CC(C)C[C@H](NC(=O)[C@H](Cc1ccccc1)NC(=O)CNC(=O)[C@@H](N)Cc1ccc(O)cc1)C(=O)O [YGFL]
Antioxidant Activity ORAC [1]: 1.42 ± 0.04 µmol TE/µmol peptide
Antioxidant Activity TEAC (ABTS assay (TEAC)): 2.12 ± 0.03 µmol TE/µmol peptide
IC50 [4, 8]: 292.5 ± 0.83 µM
